Publication PMC6320938 (Molecules, 2018)
Each block holds one compound with its values, some of them ahead of it.

How the values were obtained:
in vivo = conditions: for AUC(0-t): AUC0–t; for AUC(0-inf): AUC0–∞; for MRT inf: MRT0–∞
Description: The validated UPLC-MS/MS method was used to measure atractylenolides I, II, and III, and atractyloside A simultaneously in rat plasma after oral administration of raw and wheat bran-processed Atractylodis Rhizoma at a dose of 3.75 g/kg. The integrated pharmacokinetics data were estimated by Drug and Statistics 3.0 (BioGuider Medicinal Technology Co. Ltd, Shanghai, China).
A UPLC system (Acquity, Waters, Milford, MA, USA) coupled with a mass spectrometer detector (XEVO-TQ-S, Waters) was used. The separation was performed on an Acquity UPLC BEH C18 column (Waters; 2.1 × 100 mm, 1.7 µm). The mobile phase consisted of acetonitrile (solution A) and ultrapure water with 0.1% methanoic acid (solution B). […] The mobile phase was delivered at a flow rate of 0.30 mL/min. The column and autosampler temperature were maintained at 40 and 10 °C, respectively. The injection volume was 2 µL and the eluent was detected by mass spectrometry with electrospray ionization (ESI) in positive scan mode. The optimized detector parameters were as follows: positive ESI with a capillary voltage of 3.0 kV; desolvation temperature of 400 °C; desolvation gas flow of 800 L/h, core gas flow of 150 L/h, and nebulizer gas flow of 7 bar. Selected multiple reaction monitoring (MRM), using the precursor to product ion combinations of m/z 233.3→187.2, 231.2→185.2, 249.2→231.2, 471.3→203.2, 151.9→110.16, was used to detect atractylenolides I, II, and III, atractyloside A, and the internal standard (IS), acetaminophen, respectively (Table 8).
Plasma samples were extracted by methanol precipitation. The plasma sample (200 µL) was spiked with IS solution (100 µL, 52 ng/mL), extracted with methanol (800 µL) by vortexing for 2 min, centrifuged at 17,108× g for 10 min, and then evaporated to dryness under a gentle stream of nitrogen. The residue was reconstituted in the mobile phase (100 µL), vortexed for 1 min, and centrifuged at 17,108× g for 10 min. Finally, the supernatant (3 µL) was injected into the UPLC-MS/MS system for analysis.
Ten rats were randomly divided into two groups (five per group). The two groups were orally administered raw Atractylodis Rhizoma at a dose of 3.75 g/kg (equal to 0.48, 0.6, 0.68, and 3.11 mg/kg of atractylenolides I, II, and III, and atractyloside A, respectively), and wheat bran-processed Atractylodis Rhizoma extract solution (equal to 0.46, 0.75, 0.56, and 3.03 mg/kg of atractylenolides I, II, and III, and atractyloside A, respectively). Plasma samples (0.3 mL) were collected in heparinized tubes from the orbital sinus at […], 0.25, 0.5, 1, 1.5,2, 3, 4, 6, 8, 10, and 12 h, and were then immediately centrifuged at 17,108× g for 10 min. The supernatant was transferred to clean test tubes and stored at −20 °C until analysis. Pharmacokinetic parameters, including the area under the blood concentration-time curve (AUC0–∞), elimination half-life (t1/2), apparent volume of distribution (Vd/F), and oral clearance (CL/F) were calculated by a noncompartmental method using Drug and Statistics 3.0 (Chinese Pharmacological Society, Shanghai, China). Other parameters were obtained directly from the experimental observations.
The pharmacokinetic parameters of atractylenolides I, II, and III, and atractyloside A were analyzed by using the one-way ANOVA test with SPSS 17.0 (SPSS Inc., Chicago, IL, USA) and linear regression analysis. The integrated concentrations at each time point for the four compounds were calculated based on the AUC weighting approach using equations (1)–(3). The weighting coefficient (Wj) and the total concentration of each compound (∑AUC0–∞) were calculated by: (1) w1=AUC0–∞/∑AUC0–∞ ∑AUC0–∞ = AUC0–∞ AT-I + AUC0–∞ AT-II + AUC0–∞ AT-III + AUC0–∞ atractyloside A(2)

[1] = test system: ear edema induced by xylene; design: method as in PMID 19023804; conditions: ear edema induced by xylene in mice; cited from earlier work
[2] = test system: rhubarb-induced spleen deficiency; design: method as in PMID 24815219; conditions: rhubarb-induced spleen deficiency in rats; cited from earlier work
HL-60 cells = conditions: via Cu, Zn-superoxide dismutase inhibition; cited from earlier work
[3] = Short-term stability in rat plasma at room temperature; assay type: in vitro ADME; conditions: for RE: room temperature stability; for 0 h Measured C / 4 h Measured C / 6 h Measured C: room temperature
Method: The stabilities of atractylenolides I, II, and III, and atractyloside A in rat plasma were evaluated at three different QC concentrations using six replicates under two conditions, including at 25 °C for 6 h, and three freeze and thaw cycles. Unextracted QC samples of the four compounds at low, medium, and high concentrations were kept at ambient temperature (25 °C) for 6 h to determine the short-term stability of the compounds in rat plasma. The samples were processed and analyzed, and then the concentrations were compared with the nominal values of the QC samples. The stabilities of the plasma samples after three freeze and thaw cycles were determined. In each cycle, the QC samples were stored at −20 °C for 24 h and thawed unassisted at room temperature. When completely thawed, the samples were refrozen within 24 h. The cycle was repeated three times and the samples were analyzed after the third cycle. Stability was assessed by comparing the mean concentration of the stored QC samples with the mean concentration of freshly prepared QC samples.

[4] = Freeze-thaw stability in rat plasma; assay type: in vitro ADME; conditions: for One Time Measured C / Two Time Measured C / Zero Time Measured C: freeze-thaw (−20 °C / room temperature); for RE: freeze-thaw stability
Method: […] Unextracted QC samples of the four compounds at low, medium, and high concentrations were kept at ambient temperature (25 °C) for 6 h to determine the short-term stability of the compounds in rat plasma. The samples were processed and analyzed, and then the concentrations were compared with the nominal values of the QC samples. […] In each cycle, the QC samples were stored at −20 °C for 24 h and thawed unassisted at room temperature. When completely thawed, the samples were refrozen within 24 h. […] Stability was assessed by comparing the mean concentration of the stored QC samples with the mean concentration of freshly prepared QC samples.

[5] = design: method as in PMID 27019565; conditions: oral raw vs wheat bran-processed Atractylodis Rhizoma; cited from earlier work
[6] = rat, in vivo, po, 3.75 g/kg, rat plasma, oral raw Atractylodis Rhizoma 3.75 g/kg, mean ± SD, n = 5
[7] = rat, in vivo, po, 3.75 g/kg, rat plasma, oral wheat bran-processed Atractylodis Rhizoma 3.75 g/kg, mean ± SD, n = 5
[8] = high QC: added 140 (atractylenolide I), 200 (II, III), 172 (atractyloside A) ng/mL
[9] = low QC: added 5.6 (atractylenolide I), 8 (II, III), 6.88 (atractyloside A) ng/mL
[10] = medium QC: added 28 (atractylenolide I), 40 (II, III), 17.2 (atractyloside A) ng/mL

- AUC0–t (in vivo; rat, in vivo, po, 3.75 g/kg): 284.83 ± 32.94 * h·μg/L
- Cmax (in vivo; rat, in vivo, po, 3.75 g/kg): 113.10 ± 19.04 ng/mL
- MRT0–∞ (in vivo; rat, in vivo, po, 3.75 g/kg): 3.07 ± 0.31 h
- t1/2 (in vivo; rat, in vivo, po, 3.75 g/kg): 1.81 ± 0.79 h
- AUC(0-t) (in vivo; rat, in vivo, po, 3.75 g/kg): 231 ± 76.8 ng·h/mL
- AUC(0-inf) (in vivo; rat, in vivo, po, 3.75 g/kg): 233 ng·h/mL
- Cmax (in vivo; rat, in vivo, po, 3.75 g/kg, Cmax): 87 ± 17 ng/mL
- MRT inf (in vivo; rat, in vivo, po, 3.75 g/kg): 3.48 ± 0.29 h
- Tmax (in vivo; rat, in vivo, po, 3.75 g/kg): 1 h
- half-life (in vivo; rat, in vivo, po, 3.75 g/kg, t1/2): 1.56 ± 0.61 h
SMILES: C=C1CCC[C@]2(C)C[C@]3(O)OC(=O)C(C)=C3C[C@@H]12 [Atractylenolide III]
- anti-inflammatory activity [1]: inhibition of ear edema

SMILES: C=C1CCC[C@]2(C)C=C3OC(=O)C(C)=C3C[C@@H]12 [Atractylenolide I]
- treatment of spleen deficiency [2]: can be used to treat rhubarb-induced spleen deficiency
- anticancer activity (apoptosis) (HL-60 cells): inducing apoptosis
- anti-inflammatory activity [1]: inhibition of ear edema

SMILES: CC(C)(OC1OC(CO)C(O)C(O)C1O)C1CCC(O)(CO)C2CC(=O)C(C)(O)C2C1 (stereo not drawn) [Atractyloside A]
- Cmax ratio, wheat bran-processed group vs raw group (in vivo; rat plasma, oral 3.75 g/kg): 1.20 fold
- AUC(0-t) (in vivo; [6]): 138 ± 60.1 ng·h/mL
- AUC(0-t) (in vivo; [7]): 307 ± 73.8 ng·h/mL
- AUC(0-inf) (in vivo; rat, in vivo, po, 3.75 g/kg, Table 6, rat plasma, oral raw Atractylodis Rhizoma 3.75 g/kg): 167 ng·h/mL
- AUC(0-inf) (in vivo; rat, in vivo, po, 3.75 g/kg, Table 6, rat plasma, oral wheat bran-processed Atractylodis Rhizoma 3.75 g/kg): 325 ng·h/mL
- AUC(0-inf) (in vivo; [6]): 167 ± 90.1 ng·h/mL
- AUC(0-inf) (in vivo; [7]): 325 ± 72.1 ng·h/mL
- Cmax (in vivo; rat, in vivo, po, 3.75 g/kg, Cmax, rat plasma, oral raw Atractylodis Rhizoma 3.75 g/kg, mean ± SD, n = 5): 57.8 ± 21.6 ng/mL
- Cmax (in vivo; rat, in vivo, po, 3.75 g/kg, Cmax, rat plasma, oral wheat bran-processed Atractylodis Rhizoma 3.75 g/kg, mean ± SD, n = 5): 69.4 ± 8.29 ng/mL
- MRT inf (in vivo; [6]): 6.05 ± 2.58 h
- MRT inf (in vivo; [7]): 4.87 ± 0.84 h
- Tmax (in vivo; [6]): 0.95 ± 0.11 h
- Tmax (in vivo; [7]): 1.5 h
- half-life (in vivo; rat, in vivo, po, 3.75 g/kg, t1/2, rat plasma, oral raw Atractylodis Rhizoma 3.75 g/kg, mean ± SD, n = 5): 3.95 ± 2.22 h
- half-life (in vivo; rat, in vivo, po, 3.75 g/kg, t1/2, rat plasma, oral wheat bran-processed Atractylodis Rhizoma 3.75 g/kg, mean ± SD, n = 5): 2.55 ± 0.98 h
- RE [3, 8]: −0.17%
- RE [3, 9]: −6.2%
- RE [3, 10]: −0.85%
- 0 h Measured C [3, 8]: 172.31 ng/mL
- 4 h Measured C [3, 8]: 171.50 ng/mL
- 6 h Measured C [3, 8]: 171.32 ng/mL
- 0 h Measured C [3, 9]: 6.81 ng/mL
- 4 h Measured C [3, 9]: 6.41 ng/mL
- 6 h Measured C [3, 9]: 6.14 ng/mL
- 0 h Measured C [3, 10]: 17.16 ng/mL
- 4 h Measured C [3, 10]: 17.02 ng/mL
- 6 h Measured C [3, 10]: 16.98 ng/mL
- One Time Measured C [4, 8]: 171.48 ng/mL
- Two Time Measured C [4, 8]: 171.65 ng/mL
- Zero Time Measured C [4, 8]: 172.73 ng/mL
- One Time Measured C [4, 9]: 6.38 ng/mL
- Two Time Measured C [4, 9]: 6.02 ng/mL
- Zero Time Measured C [4, 9]: 6.39 ng/mL
- One Time Measured C [4, 10]: 17.36 ng/mL
- Two Time Measured C [4, 10]: 17.02 ng/mL
- Zero Time Measured C [4, 10]: 17.86 ng/mL
- RE [4, 8]: −0.03%
- RE [4, 9]: −8.96%
- RE [4, 10]: 1.24%

SMILES: C/C=C/C#CC#C/C=C/c1ccco1 [atractylodin]
- effect of stir-frying the rhizome with wheat bran on absorption [5]: promoted and accelerated the absorption
